Read-outs that look alike come from different tables or passages of the source.

The conditions of data set [1]: previous study, humans; cited from earlier work.
Data set [2] is described as follows: Stability of tepotinib in QC plasma samples. Format: in vitro ADME, rat.
For data set [3] the following is noted: tepotinib 50 mg/kg oral, rat plasma, mean ± SD.

Usually Tmax stands for the time at which the peak concentration occurs. As usually defined, the AUC(0-t) is the area under the concentration-time curve up to a stated or last time point. A low value points to low exposure. The AUC(0-inf) is total exposure, with the tail of the curve extrapolated. Read a low AUC(0-inf) as low exposure. One may read the Cmax as the highest concentration seen after dosing. As a reminder, the MRT last is the average time that molecules of a dose stay in the body. For orientation: MRT inf means a mean duration of stay, worked out from the concentration-time curve. A word on the half-life: it is the time in which the quantity being followed falls by half. With `CN1CCC(COc2cnc(-c3cccc(Cn4nc(-c5cccc(C#N)c5)ccc4=O)c3)nc2)CC1` [tepotinib, Tepotinib], the time to peak (Tmax) is 9 h in data set [1] and 8.8 ± 3.03 h in data set [3] (male, Sprague-Dawley, rat, in vivo, po, 50 mg/kg, Tmax, Group A: control (0.5% CMC-Na)). In data set [2] (-80 ℃ refrigerator), the “stability maintained (long-term stability)” value was determined as 4 weeks. In data set [2] (-80 ℃ to ambient temperature), the “stability maintained over freeze‒thaw cycles” value is given as 3 freeze‒thaw cycles. The “stability maintained (short-term stability)” value in data set [2] (ambient temperature) is 3 h. Further, the “stability maintained in autosampler” value in data set [2] (autosampler (10 ℃)) is 6 h. The same compound yielded a CLz/F in data set [3] (Group A: control (0.5% CMC-Na)) of 10.88 ± 1.04 L/h. Besides, the AUC(0-t) in data set [3] (male, Sprague-Dawley, rat, in vivo, po, 50 mg/kg, AUC0→t, Group A: control (0.5% CMC-Na)) is 4600 ± 458 ng·h/mL. Moreover, the area under the curve AUC(0-inf) in data set [3] (male, Sprague-Dawley, rat, in vivo, po, 50 mg/kg, AUC0→∞, Group A: control (0.5% CMC-Na)) was determined as 4630 ± 454 ng·h/mL. In data set [3] (male, Sprague-Dawley, rat, in vivo, po, 50 mg/kg, Cmax, Group A: control (0.5% CMC-Na)), the peak level (Cmax) was 180 ± 38.2 ng/mL. This compound showed an MRT last in data set [3] (male, Sprague-Dawley, rat, in vivo, po, 50 mg/kg, MRT0→t, Group A: control (0.5% CMC-Na)) of 18.9 ± 1.21 h. In data set [3] (male, Sprague-Dawley, rat, in vivo, po, 50 mg/kg, MRT0→∞, Group A: control (0.5% CMC-Na)), the mean residence time (MRT inf) is 19.4 ± 1.36 h. The compound further had a half-life in data set [3] (male, Sprague-Dawley, rat, in vivo, po, 50 mg/kg, t1/2, Group A: control (0.5% CMC-Na)) of 9.4 ± 2.35 h.

Values taken from article PMC11536652 (BMC Chemistry, 2024).
